According to patent US20060269924A1, “Modulation of telomere-initiated cell signaling” (TRUSTEES OF BOSTON UNIVERSITY, priority 2003, published 2006):
{P} = phosphate

How the values were obtained:
[1] = tested on: T-oligo-induced total p53, p21, p53 serine 15 phosphorylation; assay: PARP inhibitor pretreatment and T-oligo responses, western blot; format: cell-based; details: fibroblasts, 40 μM T-oligo, 48 hours; 3AB 2.5 mM or IQ 100 μM
Protocol: To investigate the role of PARPs in responses to T-oligo, fibroblasts were pretreated with one of two different PARP inhibitors, 3-aminobenzamide (3AB, 2.5 mM) or […] (IQ, 100 μM) for 2 hours before addition of 40 μM T-oligo or an equal amount of diluent as a control. An additional dose of each inhibitor was given to the cells 4 hours after addition of the T-oligo or diluent (D). Fibroblasts were treated with 3AB and T-oligo, then collected 48 hours later for western blot. T-oligo-induced upregulation of total p53, p21, phosphorylation of p53 serine 15 (indicating p53 activation) were all reduced in the presence of 3AB (FIG. 17A).

[2] = tested on: p53 serine 15 phosphorylation and p21 induction in response to TRF2^DN; assay: PARP inhibitors and response to TRF2^DN, western analysis; format: cell-based; details: neonatal fibroblasts, AdTRF2DN, 3 days; 3AB 2.5 mM or IQ 100 μM
Protocol: The graphs show densitometric readings of the western blots, with diluent control set at 100%. FIG. 9f: Lane 1, diluent, GFP; lane 2, diluent TRF2DN; lane 3, 3AB, GFP; lane 4, 3AB, TRF2DN; lane 5, IQ, GFP; lane 6, IQ, TRF2DN.
Neonatal fibroblasts were treated with AdTRF2DN or AdGFP as a negative control. Two hours before infection, cells were treated with either diluent 3AB (2.5 mM) or IQ (100 μM). After 3 days cells were collected for western analysis for the c-myc-tagged TRF2DN (to confirm infection), p53 serine 15 phosphorylation and p21 induction.

[3] = tested on: human fibrosarcoma HT-1080 cells; assay: SA-β-Gal staining, HT-1080 cells; format: cell-based; details: HT-1080 cells, 40 μM, 4 days
Protocol: (§1) FIG. 13a: Exposure to T-oligo increases SA-β-Gal activity. HT-1080 cells were treated for 4 days with diluent alone or 40 μM T-oligo or the complementary control oligo, then stained and assayed for SA-β-Gal activity. FIG. 13b: Quantitative analysis of SA-β-Gal positive cells. Cells expressing SA-β-Gal activity were counted and presented as percentage of total cells in the cultures. Averages and standard deviations were calculated from 3 representative fields from each of 3 independent experiments. FIG. 13c: Effect of T-oligo on cell proliferation. Cells were treated for 4 days as in FIG. 12 and assayed for DNA synthesis by BrdU incorporation. FIG. 13d: Quantitative analysis of BrdU incorporation. Dark black nuclei indicate BrdU incorporated into nuclear DNA. BrdU positive cells were calculated and presented as percentage of total cells in the cultures. Averages and standard deviations were calculated from 3 representative fields from each of 3 independent experiments. FIG. 13e: Effect of T-oligo on pRb phosphorylation. Cells were treated as in FIG. 13a and were then collected for protein analysis by western blot using 30 μg total protein and probed for pRb-ser780*, ser795* and ser807/811* (pRb phosphorylated at serine 780, serine 795 and serine 807/811 respectively). Lanes D, T and C contain protein samples from cells treated with diluent, T-oligo and complementary oligo respectively. β-actin was used as a loading control.
Parallel cultures were treated as described in FIG. 13a. Cells were then washed once with PBS and refed with complete medium without additional treatment for 24 hours or 48 hours. FIG. 14a: SA-β-Gal activity. Cells were stained for SA-β-Gal activity. […]
TRF2^DN has been reported to induce a senescent phenotype in human fibrosarcoma HT-1080 cells. To determine whether exposure to the telomere 3′ overhang DNA (T-oligo) also induces senescence in these cells, HT-1080 cells (American Type Culture Collection; Manassas, Va.) were treated with either diluent alone, T-oligo or the complementary oligo as a control, for 4 days and then assessed for SA-β-Gal activity. […]

[4] = tested on: HT-1080 fibrosarcoma cells; assay: BrdU incorporation assay, HT-1080 cells; format: cell-based, human; details: HT-1080 cells, 40 μM, 4 days
Protocol: as §1
Parallel cultures were treated as described in FIG. 13a. Cells were then washed once with PBS and refed with complete medium without additional treatment for 24 hours or 48 hours. FIG. 14a: SA-β-Gal activity. […]
HT-1080 fibrosarcoma cells cultured on Permanox chamber slides were treated with diluent, 40 μM T-oligo or 40 μM complementary oligo for 4 days and DNA synthesis was assayed using 5-bromo-2′-deoxy-uridine (BrdU) Labeling and Detection Kit II (Roche Molecular Biochemicals, Indianapolis, Ind.) following the protocol supplied by the manufacturer. […] After incubation with anti-mouse-Ig-alkaline phosphatase, the color reaction was detected by light microscopy. […]

[5] = tested on: HT-1080 human fibrosarcoma cells; assay: Clonogenic assay; format: cell-based; details: HT-1080, 40 μM for one week, then replated 2 weeks without treatment
Protocol: Cells were treated with diluent, 40 μM T-oligo or complementary oligo for one week, and then assayed. FIG. 15a: Appearance of stained dishes. FIG. 15b: Quantification of clonogenic capacity. Colonies of triplicate cultures were counted and plotted as percentage of diluent treated control.
Human fibrosarcoma cells were treated with diluent alone, 40 μM T-oligo or 40 μM complementary oligo for one week and were then trypsinized and counted. 300 cells were seeded into 60 mm culture dishes in triplicate and then incubated in complete medium for 2 weeks with medium changed twice per week. Subsequently, the cells were fixed for 5 min in 100% methanol. The methanol was then removed and the culture dishes were rinsed briefly with water. The colonies were stained for 10 min in 4% (w/v) methylene blue solution in PBS, washed once again with water, and then counted.
To determine the long-term effect of T-oligo treatment on cell growth, HT-1080 human fibrosarcoma cells were treated with either diluent alone, 40 μM T-oligo or 40 μM complementary control oligo for one week and then an equal number of cells were replated and medium was changed twice per week for 2 weeks with no further treatment, and then stained with methylene blue (FIG. 15a).

[6] = tested on: HT-1080 fibrosarcoma cells; assay: Telomere length (mean TRF length) assay; format: cell-based, human; details: HT-1080 cells, 40 μM, 4 days
Protocol: Cells were treated as described in FIG. 13a. Lanes 1, 2, 3 contain genomic DNA from cells treated with diluent (D), T-oligo (T), or complementary oligo (C). Lanes 4 and 5 contain high (H) molecular and low (L) molecular weight standard telomeric DNA.
HT-1080 fibrosarcoma cells were treated with diluent, 40 μM T-oligo or 40 μM complementary oligo for 4 days and then the genomic DNA was isolated using the DNeasy Tissue Kit (Qiagen, Valencia, Calif.). Telomere length was determined using the Telo TTAGGG Telomere Length Assay (Roche Molecular Biochemicals, Indianapolis, Ind.) following the protocol supplied by the manufacturer. […] Terminal restriction fragments (TRF) were detected by chemiluminescence. The mean TRF length was calculated by scanning the exposed X-ray film with a densitometer and calculated as previously described (Harley et al. [1990] Telomeres shorten during ageing of human fibroblasts. Nature 345, 458-460).
To determine the affect of T-oligos on the mean telomere length (MTL) in HT-1080 cells, cells were analyzed after treatment with T-oligo for 4 days which corresponded to the time that the senescent phenotype was readily observed. […] The less than 100 bp difference in calculated MTL is within the range of experimental variation and is not significant.

[7] = tested on: p95 phosphorylated at serine 343; assay: p95 serine 343 phosphorylation after tankyrase siRNA, western blotting and densitometry; format: cell-based, human; details: 24 hours
Protocol: Paired cultures of human fibroblasts were treated once with tankyrase siRNA, with a non-specific siRNA (control) or were mock transfected as a second control. […] After an additional 24 hours, cells were collected and processed for western blotting using an antibody specific for p95 phosphorylated at serine 343, indicating p95 modification by activated ATM kinase. The film was then subjected to densitometry and the diluent control for each group of cells was set at 1.0 in arbitrary units (FIG. 19). As expected, in cells with normal tankyrase levels the T-oligo treated cells had twice the amount of phosphorylated p95, while the control oligo-treated or diluent-treated cells had only a 30-40% increase.

[8] = tested on: S91 mouse melanoma cells; assay: Melanin content of S91 melanoma cells; format: cell-based; details: 100 μM
Protocol: Cultures of S91 mouse melanoma cells (100,000 cells/38 cm^2) were treated with 100 μM pTpT or phosphorothioate pTpT (pTspT) (FIG. 4) or 40 μM 11mer-1 or the phosphorothioate 11mer-1 (11mer-1-S) (FIG. 5) for 6 days and were then collected, counted and assayed for melanin content.
(§2) Duplicate cultures of S91 cells (100,000 cells/39 cm^2) were either sham-irradiated or irradiated with 5 mJ/cm^2 solar-simulated light from a 1 kW xenon arc solar-simulator (XMN 1000-21, Optical Radiation, Azuza, Calif.) metered at 285±5 nm using a research radiometer (model IL1700A, International Light, Newburyport, Mass.). Two sham-irradiated plates were then supplemented with 100 μM pTspT and two irradiated cultures were similarly treated with pTspT. After one week, cells were collected, counted and analyzed for melanin content by dissolving the cell pellets in 1 N NaOH and measuring the optical density at 475 nm. […] However, this response was blocked by the addition of pTspT (FIG. 6). In addition, the constitutive pigmentation of these cells was reduced by the pTspT in the sham-irradiated cultures, similar to the data presented in FIGS. 4 and 5.

[9] = tested on: S91 cells; assay: UV-induced melanogenesis in S91 cells; format: cell-based, mouse; details: 5 mJ/cm^2 solar-simulated light, 100 μM, one week
Protocol: as §2

## NC(=O)c1cccc(N)c1 [Oligonucleotide 3AB, 3-aminobenzamide]
[1]
  T-oligo-induced phosphorylation of p53 serine 15: reduced
  T-oligo-induced upregulation of p21: reduced
  T-oligo-induced upregulation of total p53: reduced
[2]
  p21 induction in response to TRF2^DN: reduced
  p53 phosphorylation in response to TRF2^DN: reduced

## pCTAACCCTAAC (DNA, 5' {P}, backbone and methylation of C not given here; listed as Homo sapiens) [Oligonucleotide 11mer-2, reference compound]
[3]
  SA-β-Gal positive cells: 6±3%
[4]
  BrdU incorporation (BrdU positive cells): 85±10%
[5]
  clonogenic capacity: 90.5±9.4 % of diluent treated control
[6]
  mean telomere length (MTL): 5.51 kb
[7]; human fibroblasts with normal tankyrase levels
  increase in phosphorylated p95: 30-40%
[7]; tankyrase knockdown group (tankyrase siRNA)
  level of p95 phosphorylation (densitometry, diluent control set at 1.0): 1.3 arbitrary units

## pTpT
[8]; 6 days
  melanogenesis (melanin content): stimulated melanogenesis

## pTspT
[8]; 6 days
  constitutive pigmentation: reduced the constitutive pigmentation
  melanogenesis (melanin content): did not
[8]; sham-irradiated, one week
  constitutive pigmentation: reduced
[9]
  UV-induced doubling of melanin content: blocked
